Test results: patent publication US20130310454A1, “PHARMACEUTICAL COMPOSITION COMPRISING EXTRACT OF LONICERA JAPONICA FOR PREVENTION AND TREATMENT OF GASTROESOPHAGEAL REFLUX DISEASE” (priority 2010, published 2013)

Tests used:
[1] = system: lipid peroxidation of esophagus tissue; assay: Lipid peroxide (malondialdehyde) of esophagus tissue in rat model of gastroesophageal reflux disease; type: in vivo; settings: esophagus mucous membrane from Experimental Example 1 (10 mg/kg oral); malondialdehyde by TBA, 532 nm
Experimental: A test for finding out the inhibition of lipid peroxidation by the inventive Lonicerae Flos extract, the inventive Lonicerae Flos fraction, or a compound isolated from the fraction (3,5-di-O-caffeoylquinic acid or 4,5-di-O-caffeoylquinic acid) was carried out. the esophagus mucous membrane extracted in Experimental Example 1 was taken out, and added in 1 ml of tris-hydrochloric acid buffer solution (pH 7.0), followed by ultrasonic grinding. After centrifugation (600×g, 4° C.) for 5 minutes, 0.3 ml of supernatant was added with 0.9 ml of trichloroacetic acid (8%). Then, after centrifugation (10,000×g, 4° C.) for 5 minutes, 1 ml of supernatant was added with 0.25 ml of TBA(1%), and then with 2 ml of n-butanol. Then, after centrifugation (3,000×g , 4° C.) for 5 minutes, on 1 ml of butanol fraction, the absorbency was measured at 532 nm. As a reference material, malonaldehyde bis-dimethyl acetal was used. The result was expressed as nmol/mg protein, and protein quantitative analysis was carried out by Bradford assay.

[2] = system: Hexosamine of esophagus mucous membrane; assay: Amount of hexosamine in esophagus tissue; type: in vivo, rat; settings: esophagus tissue of reflux rats; for Hexosamine: 10 mg/kg, normal group 1101.3, control group 925.3; for content of hexosamine compared to that of a control group: doses as in Table 3
Experimental: (§1) On the Lonicerae Flos extract, the Lonicerae Flos fraction, or a compound isolated from the fraction (3,5-di-O-caffeoylquinic acid or 4,5-di-O-caffeoylquinic acid), having a therapeutic effect in a rat model of gastroesophageal reflux disease, the amounts of Hexosamine and Sialic acid constituting esophagus mucous membrane of esophagus tissue were measured.
Esophagus tissues of all test groups, obtained from <Experimental Example 1>, were immersed in ethanol, and then left in acetone for 2 days, and in ether for 1 day, followed by cleaning and drying. The test sample was weighed, added with 5 ml of 4N HCl solution, and hydrolyzed by being heated at 100° C. for 9 hours. Then, the resultant product was cooled at room temperature, and filtered. 0.5 ml of filtrate was added with 0.5 ml of 4N NaOH solution for neutralization, and then added with 1 ml of acetylacetone solution, followed by shaking. Then, the resultant product was heated at 100° C. for 20 minutes, and cooled, and then added with 5 ml of isoamylalcohol, followed by shaking for 2 minutes. After centrifugation at 3,000 rpm for 10 minutes, 2 ml of supernatant was collected. The supernatant was added with 0.5 ml of a color agent, and left for 15 minutes, and then its absorbency was measured at 530 nm. From a calibration curve obtained by using Glucosamine, the content of hexosamine was calculated.

[3] = system: rat model of gastroesophageal reflux disease; assay: Effect on esophagus lesion in rat model of gastroesophageal reflux disease; type: in vivo; settings: 10 mg/kg oral in 0.5% CMC, 1 h before reflux induction; esophagus examined 6 h after operation; SD male rats
From the text: In order to determine the therapeutic effect on acute/chronic gastroesophageal reflux disease by the inventive Lonicerae Flos fraction or the compound represented by Formula 1 or 2, the method for measuring the therapeutic effect on gastroesophageal reflux disease (Nakamura K et al; Jpn. J. Pharmacol., 32(3), 445-456, 1982: Okabe S, et al; Jpn. J. Pharmacol., 69(4), 317-323, 1995) was applied to the present experiments.
In order to determine the therapeutic effect of the inventive Lonicerae Flos extract, the inventive Lonicerae Flos fraction, or the compound represented by Formula 1 or 2 in a rat model of gastroesophageal reflux disease, Spraugue-Dawley(SD)-based male rats aged 7 weeks were fasted for 24 hours and supplied with water in a sufficient amount. The rats were weighed, and were orally administered with omeprazole (Sigma-Aldrich) as a control drug and with Lonicerae Flos extract/fraction as a test drug, which are suspended in a 0.5% CMC (Carboxymethyl cellulose) solution, one hour before induction of reflux. For reflux induction, the abdomen of the rat was opened, and a pylorus region between stomach and duodenum was ligated. Then, a stomach-esophagus sphincter between esophagus and stomach was injured by longitudinal incision of 1 cm so that gastric acid can be flowed backward due to abnormal relaxation of the sphincter. Also, a transition zone between forestomach and glandular portion was ligated by thread, and the abdomen was sutured by cotton thread. 6 hours after the completion of the operation, inhalation anesthesia was performed, and the esophagus was extracted. Then, the size of an esophagus lesion and the extent of esophagitis were observed. In Table 1, the esophagus lesion inhibition ratio (%) of a test group administered with the inventive test material, with respect to a control group, is noted.

[4] = system: Sialic acid of esophagus mucous membrane; assay: Amount of sialic acid in esophagus tissue; type: in vivo, rat; settings: esophagus tissue of reflux rats; for Sialic acid: 10 mg/kg, normal group 125.2, control group 95.2; for content of sialic acid compared to that of a control group: doses as in Table 3
Experimental: as §1
Esophagus tissues of all test groups, obtained from <Experimental Example 1>, were immersed in ethanol, and then left in acetone for 2 days, and in ether for 1 day, followed by cleaning and drying. The test sample was weighed, added with 5 ml of 0.1N H2SO4 solution, and hydrolyzed by being heated at 80° C. for 1 hour. Then, the resultant product was cooled at room temperature, and filtered. 0.2 ml of filtrate was mixed with 0.1 ml of 0.2M periodate solution, and left at room temperature for 20 minutes. Then, the resultant solution was mixed with 1 ml of 10% arsenite solution until a yellowish brown color disappeared. 3 ml of 0.6% TBA solution was added thereto, followed by mixing. The resultant product was covered with a cap, and heated at 100° C. for 15 minutes, cooled, and left in a cool bath for 5 minutes, followed by cen- trifugation at 3,000 rpm for 10 minutes. A supernatant was collected, and its absorbency was measured at 549nm. From a calibration curve obtained by using N-acetylneuraminic acid, the content of Sialic acid was calculated.

TNF-α = assay: TNF-alpha level in esophagus tissue (ELISA), anti-inflammatory effect; type: in vivo, rat; settings: 10 mg/kg; for inflammation inhibition ratio: calculated from TNF-alpha of test, control and normal groups; for TNF-alpha: esophagus tissue of reflux rats, normal group 120.3, control group 325.2
Experimental: On the Lonicerae Flos extract, the Lonicerae Flos fraction, or a compound isolated from the fraction (3,5-di-O-caffeoylquinic acid or 4,5-di-O-caffeoylquinic acid), having a therapeutic effect in a rat model of gastroesophageal reflux disease, in order to measure an anti-inflammatory effect within esophagus tissue, a level of Tumor necrosis factor-alpha(TNF-α) playing an important role in inflammatory disease mechanism was measured within esophagus tissue of a rat (Nippon Rinsho, 68(5), 819-822, 2010). As a kit for this measurement, rat TNF-α ELISA kit (Cat No:88-7340, eBioscience) was used. Each of esophagus tissues of all test groups, obtained from <Experimental Example 1>was introduced into homogenizing buffer (10×)(pH 7.4: 1.15% KCl, 50 mM Tris-HCl, 1 mM EDTA), followed by grinding by a homogenizer. Then, after centrifugation at 3,000 rpm or more for 10 minutes, the homogenized tissue liquid (supernatant) was separated, and then stored in a deep freezer for the use in the experiment. After all antigen-antibody reactions were completed, the absorbency was measured by ELISA Reader (BIORAD) at 450 nm, and then the amount of TNF-α in esophagus tissue was expressed by using a reference curve of absorbency. The inflammation inhibition ratio (%) of a test material was calculated by the following equation. Also, the anti-inflammatory effect by the Lonicerae Flos extract in a rat model of gastroesophageal reflux disease is noted in Table 2.
Inflammation inhibition ratio (%)=1−((test group-normal group)/(control group-normal group))×100

[5] = system: SPF SD-based female/male rats; assay: Toxicity test of acute oral administration; type: in vivo; settings: single oral dose 1.0 g/kg or 2.0 g/kg in 0.5% CMC; 5 female and 5 male SD rats; autopsy after 7 days; safe up to 2.0 g/kg
Experimental: By applying the Lonicerae Flos extract of Example 1, fractions of Examples 4 and 5, and 3,5-di-O-caffeoylquinic acid and 4,5-di-O-caffeoylquinic acid from Example 6, to SPF (specific pathogen free) SD-based female/male rats aged 6 weeks, an acute toxicity test was carried out.
Female 5 rats and male 5 rats of each test group were orally administered with the test materials from Examples in a dose of 1.0 g/kg or 2.0 g/kg. The test materials were suspended in 0.5% CMC (Carboxymethyl cellulose) solution before the administration. When the test materials were administered, mortality, clinical symptoms, and weight changes of animals were observed. 7 days after the administration, through autopsy, a hematologic examination and a blood chemical test were carried out. Then, with the naked eye, it was observed if there was abnormality in abdominal cavity organs and thoracic cage organs. […] Also, through weight measurement, a blood test, a blood chemical test, and autopsy results, an abnormal change was not observed.

SMILES | lipid peroxidation inhibiting ratio [1] | Hexosamine [2] | content of hexosamine compared to that of a control group [2] | esophagus lesion inhibition ratio with respect to control group [3] | Sialic acid [4] | content of sialic acid compared to that of a control group [4] | inflammation inhibition ratio (TNF-α) | TNF-alpha (TNF-α) | acute oral toxicity (mortality, clinical symptoms, weight changes, blood tests, autopsy) [5]
O=C(/C=C/c1ccc(O)c(O)c1)O[C@H]1[C@H](O)C[C@](O)(C(=O)O)C[C@H]1OC(=O)/C=C/c1ccc(O)c(O)c1 [4,5-di-CQA, 4,5-di-O-caffeoylquinic acid] | 50.2% | 1380.2 μg/100 mg dry tissue | significantly increased | 81% | 148.1 μg/100 mg dry tissue | significantly increased | 85.5% | 150.1 pg/mg Tissue weight | –
O=C(/C=C/c1ccc(O)c(O)c1)OC1CC(O)(C(=O)O)CC(OC(=O)/C=C/c2ccc(O)c(O)c2)C1O (centres unmarked) [3,5-di-CQA, 3,5-di-O-caffeoylquinic acid] | 49.1% | 1445.2 μg/100 mg dry tissue | significantly increased | 90% | 155.3 μg/100 mg dry tissue | significantly increased | 87.8% | 145.3 pg/mg Tissue weight | not showing toxicity
COc1ccc2[nH]c([S+]([O-])Cc3ncc(C)c(OC)c3C)nc2c1 (centres unmarked) [omeprazole, reference compound] | 53.9% | 1176.3 μg/100 mg dry tissue | – | 83% | 132.2 μg/100 mg dry tissue | – | 80.5% | 160.2 pg/mg Tissue weight | –
